Source: paper PMC8151276, “An Integrated Approach toward NanoBRET Tracers for Analysis of GPCR Ligand Engagement” (Molecules, 2021)

Columns and labels:
Format in all cases: binding
[1] = target: T1, AVPR2 (Homo sapiens, UniProt P30518); test: NanoBRET screen HiBiT-AVPR2 in HEK293
T1 construct: purchased Promega (in-house HiBiT-GPCR construct library, NanoBRET)
Experimental: (§1) Each tracer candidate was screened across the entire library of HiBiT-GPCR constructs using NanoBRET as the detection modality. As depicted in Figure 4A, the specificity of interactions was evaluated through decrease in BRET due to competitive displacement of a bound tracer by excess parental compound. Each tracer was analyzed for binding to each HiBiT-GPCR fusion in the absence and in the presence of competing parental compound. Briefly, HEK293 cells were transfected with HiBiT-GPCR constructs diluted into promoterless DNA to reduce expression and maximize translocation to the cell surface. Each tracer candidate was then screened at concentrations of 1 μM and 0.1 μM across cells expressing these fusions. Cells were treated for 1.5 h with tracer either alone or in the presence of 20 μM competing parental compound (i.e., control). BRET was measured upon addition of purified LgBiT and subsequent complementation with HiBiT genetically fused to a GPCR. The specificity of interactions was assessed through a decrease in BRET signal due to competitive displacement of the bound tracer. To further gauge the robustness of these interactions, the fold response over the control (i.e., BRETtracer/BRETcontrol) was calculated. We chose a 1.5-fold response, which translates to ≥7-fold signal over noise as the minimal threshold required to score an interaction as positive. […]. Below we highlight the screening results obtained for our exemplary fluorescent tracers based on Clozapine, Amitriptyline and AZD1283.
(§2) HiBiT-GPCR DNA constructs were diluted in 10 mM Tris pH 8 to a final concentration of 0.01 μg/μL, arrayed in 96-well plates and stored at −20 °C. For transfection, HEK293 cells were suspended in Opti-MEM (without phenol red) supplemented with 2% fetal bovine serum (Seradigm) and 100 units/mL penicillin–streptomycin (Gibco) at a final concentration of 220,000 cells/mL and dispensed into white 96-well plates at 90 μL/well. Subsequent transfections and screens were carried using an Agilent Bravo Automated Liquid Handling Platform. First, the 96-well HiBiT DNA arrays were diluted 25-fold in Opti-MEM (without serum or phenol red) to a final concentration of 0.0004 μg/μL and 20 μL of the diluted DNAs were transferred into new 96-well plates. Next, promoterless carrier DNA (1 μg/μL) was diluted 25-fold (0.04 μg/μL) and then dispensed into the diluted arrays at 20 μL/well. Following brief mixing, Viafect transfection reagent (Promega) diluted 16-fold into Opti-MEM was dispensed into the plates at 40 μL/well. After mixing by pipetting, plates were incubated for 10 min on the pipetting station deck. The DNA-transfection reagent complexes were then added to plates containing cells. To facilitate the screen, 10 μL of DNA-transfection reagent complexes were added in duplicates to the top 4 and bottom 4 rows, resulting in two identical 48-well arrays per plate. Plates with transfected cells were incubated for 18–20 h at 37 °C/5% CO2. A screen of each tracer across the entire library using two different concentrations requires duplicate plates of transfected cells. Depending on the number of tracers being screened, transfections can be scaled up using the same ratios. The next day, for each tracer, four 20× screening solutions in tracer dilution buffer (Promega) were prepared: two duplicates at final concentration of 20 μM and two duplicates at a final concentration of 2 μM. A competing unmodified compound was added to one of each duplicate at a final concentration of 400 μM. The four resulting solutions were diluted 4-fold in Opti-MEM without serum or phenol red to generate 5× solutions (5 µM and 0.5 µM tracer +/− 100 μM competing compound). To screen the library, a BioTek MultiFlo FX liquid dispenser was used to dispense 22.5 µL of tracer solution to the top 4 rows and 22.5 µL tracer + competing compound solution to the 4 bottom rows. Plates were briefly mixed on an orbital shaker and incubated for 1.5 h at room temperature. […]

[2] = target: T2, P2RY1 (Homo sapiens, UniProt P47900); test: NanoBRET screen HiBiT-P2RY1 in HEK293
T2 construct: purchased Promega (in-house HiBiT-GPCR construct library, NanoBRET)
T2 sequence (P47900 whole entry): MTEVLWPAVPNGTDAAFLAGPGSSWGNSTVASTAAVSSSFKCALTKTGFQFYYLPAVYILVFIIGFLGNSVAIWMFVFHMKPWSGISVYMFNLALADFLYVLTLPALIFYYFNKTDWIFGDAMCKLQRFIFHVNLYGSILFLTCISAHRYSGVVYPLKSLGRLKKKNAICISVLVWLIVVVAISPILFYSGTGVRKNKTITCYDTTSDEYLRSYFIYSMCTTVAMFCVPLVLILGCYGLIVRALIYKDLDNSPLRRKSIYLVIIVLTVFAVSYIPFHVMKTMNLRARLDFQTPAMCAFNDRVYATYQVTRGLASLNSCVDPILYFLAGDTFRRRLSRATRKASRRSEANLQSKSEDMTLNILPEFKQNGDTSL
Experimental: as §1, §2

[3] = target: T3, P2RY2 (Homo sapiens, UniProt P41231); test: NanoBRET screen HiBiT-P2RY2 in HEK293
T3 construct: purchased Promega (in-house HiBiT-GPCR construct library, NanoBRET)
T3 sequence (P41231 whole entry): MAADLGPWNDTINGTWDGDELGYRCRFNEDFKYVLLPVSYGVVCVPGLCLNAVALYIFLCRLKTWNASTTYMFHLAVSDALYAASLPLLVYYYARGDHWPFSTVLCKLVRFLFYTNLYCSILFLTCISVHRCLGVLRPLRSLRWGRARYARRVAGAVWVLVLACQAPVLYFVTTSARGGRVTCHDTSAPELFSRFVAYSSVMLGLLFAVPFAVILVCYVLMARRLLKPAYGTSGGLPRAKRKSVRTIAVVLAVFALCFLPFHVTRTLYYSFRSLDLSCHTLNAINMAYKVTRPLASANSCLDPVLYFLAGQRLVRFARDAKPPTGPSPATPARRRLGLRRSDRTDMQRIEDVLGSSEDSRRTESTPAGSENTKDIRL
Experimental: as §1, §2

[4] = target: T4, P2RY10 (Homo sapiens, UniProt O00398); test: NanoBRET screen HiBiT-P2RY10 in HEK293
T4 construct: purchased Promega (in-house HiBiT-GPCR construct library, NanoBRET)
T4 sequence (O00398 whole entry, one chain of several): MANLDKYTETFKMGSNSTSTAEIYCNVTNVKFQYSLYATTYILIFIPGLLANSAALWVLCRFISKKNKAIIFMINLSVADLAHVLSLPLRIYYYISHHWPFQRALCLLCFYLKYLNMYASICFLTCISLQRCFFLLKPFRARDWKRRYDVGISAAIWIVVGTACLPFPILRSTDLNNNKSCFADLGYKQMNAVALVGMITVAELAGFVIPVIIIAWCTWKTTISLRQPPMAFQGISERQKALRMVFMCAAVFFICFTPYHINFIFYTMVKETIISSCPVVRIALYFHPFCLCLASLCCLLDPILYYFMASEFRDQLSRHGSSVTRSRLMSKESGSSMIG
Experimental: as §1, §2

[5] = target: T5, PDGFRB (Homo sapiens, UniProt P09619); test: NanoBRET screen HiBiT-PDGFRB in HEK293
T5 construct: purchased Promega (in-house HiBiT-GPCR construct library, NanoBRET)
T5 sequence (P09619 33-1106): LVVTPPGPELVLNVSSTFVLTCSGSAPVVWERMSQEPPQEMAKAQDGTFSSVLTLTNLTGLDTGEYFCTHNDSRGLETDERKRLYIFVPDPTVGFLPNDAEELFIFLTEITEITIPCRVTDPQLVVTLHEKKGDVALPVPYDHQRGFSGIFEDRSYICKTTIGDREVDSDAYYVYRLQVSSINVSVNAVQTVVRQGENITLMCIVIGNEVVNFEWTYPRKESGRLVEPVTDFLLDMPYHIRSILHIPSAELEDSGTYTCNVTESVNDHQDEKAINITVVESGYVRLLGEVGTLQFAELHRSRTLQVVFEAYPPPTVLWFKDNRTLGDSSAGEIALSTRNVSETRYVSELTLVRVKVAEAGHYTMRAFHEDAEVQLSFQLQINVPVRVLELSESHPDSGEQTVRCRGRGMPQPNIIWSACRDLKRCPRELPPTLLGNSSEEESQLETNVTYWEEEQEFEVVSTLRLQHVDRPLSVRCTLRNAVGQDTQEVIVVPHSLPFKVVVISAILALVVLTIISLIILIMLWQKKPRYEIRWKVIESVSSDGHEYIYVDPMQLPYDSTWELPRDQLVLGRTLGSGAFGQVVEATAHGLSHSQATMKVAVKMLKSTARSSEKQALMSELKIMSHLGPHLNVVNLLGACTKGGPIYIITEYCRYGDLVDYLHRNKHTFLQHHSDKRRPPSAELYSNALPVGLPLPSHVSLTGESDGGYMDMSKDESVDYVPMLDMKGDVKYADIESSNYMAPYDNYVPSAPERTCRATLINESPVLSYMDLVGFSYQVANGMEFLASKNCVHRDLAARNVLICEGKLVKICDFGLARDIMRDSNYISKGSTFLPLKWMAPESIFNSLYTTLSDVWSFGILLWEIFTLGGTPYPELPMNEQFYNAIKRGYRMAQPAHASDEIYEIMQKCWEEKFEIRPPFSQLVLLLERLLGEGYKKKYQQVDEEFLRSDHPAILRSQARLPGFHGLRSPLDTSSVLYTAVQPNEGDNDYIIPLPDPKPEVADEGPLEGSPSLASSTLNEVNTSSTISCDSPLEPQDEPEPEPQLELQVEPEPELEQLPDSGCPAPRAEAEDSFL
Experimental: as §1, §2

[6] = target: T6, F2RL3 (Homo sapiens, UniProt Q96RI0); test: NanoBRET screen HiBiT-F2RL3 in HEK293
T6 construct: purchased Promega (in-house HiBiT-GPCR construct library, NanoBRET)
T6 sequence (Q96RI0 18-385): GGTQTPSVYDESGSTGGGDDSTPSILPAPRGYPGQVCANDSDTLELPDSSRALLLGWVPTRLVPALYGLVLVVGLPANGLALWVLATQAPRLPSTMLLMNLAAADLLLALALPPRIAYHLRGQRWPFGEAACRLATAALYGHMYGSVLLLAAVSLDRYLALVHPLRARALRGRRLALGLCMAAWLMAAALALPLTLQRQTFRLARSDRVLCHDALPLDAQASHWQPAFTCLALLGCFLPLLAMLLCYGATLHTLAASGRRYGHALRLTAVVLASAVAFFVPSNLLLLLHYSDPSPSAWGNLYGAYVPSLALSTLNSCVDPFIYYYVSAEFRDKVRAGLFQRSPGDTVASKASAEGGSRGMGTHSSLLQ
Experimental: as §1, §2

[7] = target: T7, RXFP4 (Homo sapiens, UniProt Q8TDU9); test: NanoBRET screen HiBiT-RXFP4 in HEK293
T7 construct: purchased Promega (in-house HiBiT-GPCR construct library, NanoBRET)
T7 sequence (Q8TDU9 whole entry): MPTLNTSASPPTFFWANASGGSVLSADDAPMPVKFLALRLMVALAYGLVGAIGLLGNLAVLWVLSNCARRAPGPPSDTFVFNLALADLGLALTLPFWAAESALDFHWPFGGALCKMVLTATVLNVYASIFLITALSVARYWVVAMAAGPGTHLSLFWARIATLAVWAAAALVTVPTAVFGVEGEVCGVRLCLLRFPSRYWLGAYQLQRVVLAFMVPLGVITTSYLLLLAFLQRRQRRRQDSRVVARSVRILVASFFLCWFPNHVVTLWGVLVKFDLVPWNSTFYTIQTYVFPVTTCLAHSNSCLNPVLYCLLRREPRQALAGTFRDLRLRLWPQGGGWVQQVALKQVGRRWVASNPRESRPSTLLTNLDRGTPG
Experimental: as §1, §2

[8] = target: T8, GRM5 (Homo sapiens, UniProt P41594); test: NanoBRET screen HiBiT-GRM5 in HEK293; conditions: GRM5
T8 construct: purchased Promega (in-house HiBiT-GPCR construct library, NanoBRET)
T8 sequence (P41594 21-1212): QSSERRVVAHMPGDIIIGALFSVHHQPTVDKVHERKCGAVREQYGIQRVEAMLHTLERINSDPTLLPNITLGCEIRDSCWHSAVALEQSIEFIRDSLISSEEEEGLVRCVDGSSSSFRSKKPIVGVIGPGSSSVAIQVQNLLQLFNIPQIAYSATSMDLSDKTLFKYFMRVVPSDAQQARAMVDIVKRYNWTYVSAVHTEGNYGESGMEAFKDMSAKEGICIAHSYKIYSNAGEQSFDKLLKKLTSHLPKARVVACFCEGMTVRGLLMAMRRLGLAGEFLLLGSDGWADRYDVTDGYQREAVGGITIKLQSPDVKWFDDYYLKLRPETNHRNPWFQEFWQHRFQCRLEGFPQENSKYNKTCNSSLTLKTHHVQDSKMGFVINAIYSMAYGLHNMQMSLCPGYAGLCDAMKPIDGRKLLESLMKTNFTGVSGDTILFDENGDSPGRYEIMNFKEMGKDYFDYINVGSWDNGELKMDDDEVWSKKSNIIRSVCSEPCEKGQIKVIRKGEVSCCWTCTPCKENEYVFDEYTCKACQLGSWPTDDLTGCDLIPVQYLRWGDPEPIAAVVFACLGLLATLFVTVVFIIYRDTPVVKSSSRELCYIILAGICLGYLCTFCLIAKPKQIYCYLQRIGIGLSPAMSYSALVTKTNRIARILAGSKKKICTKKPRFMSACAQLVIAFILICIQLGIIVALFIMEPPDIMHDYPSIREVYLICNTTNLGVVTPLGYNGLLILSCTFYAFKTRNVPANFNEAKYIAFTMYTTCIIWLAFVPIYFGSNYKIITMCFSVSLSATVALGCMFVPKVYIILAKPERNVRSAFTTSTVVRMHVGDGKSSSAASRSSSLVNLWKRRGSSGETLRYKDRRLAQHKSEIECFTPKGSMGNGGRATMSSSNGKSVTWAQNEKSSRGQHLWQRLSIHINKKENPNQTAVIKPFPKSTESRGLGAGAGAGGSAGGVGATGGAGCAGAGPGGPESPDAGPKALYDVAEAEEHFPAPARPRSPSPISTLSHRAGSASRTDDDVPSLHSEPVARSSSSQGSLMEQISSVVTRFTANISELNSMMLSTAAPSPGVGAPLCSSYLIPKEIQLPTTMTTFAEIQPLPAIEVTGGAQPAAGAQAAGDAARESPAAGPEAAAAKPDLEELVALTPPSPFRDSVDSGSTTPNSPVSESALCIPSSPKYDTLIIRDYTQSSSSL
Experimental: as §1, §2

T1 sequence (P30518 whole entry): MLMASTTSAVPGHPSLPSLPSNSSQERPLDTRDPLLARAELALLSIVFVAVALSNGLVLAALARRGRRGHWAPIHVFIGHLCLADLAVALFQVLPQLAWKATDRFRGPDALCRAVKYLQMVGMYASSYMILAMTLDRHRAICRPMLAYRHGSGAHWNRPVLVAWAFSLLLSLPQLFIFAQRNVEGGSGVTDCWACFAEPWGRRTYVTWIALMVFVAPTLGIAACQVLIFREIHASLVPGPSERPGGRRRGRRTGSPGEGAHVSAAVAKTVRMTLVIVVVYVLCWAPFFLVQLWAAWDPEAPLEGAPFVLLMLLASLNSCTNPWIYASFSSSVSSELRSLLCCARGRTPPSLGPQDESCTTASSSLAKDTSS

In the case of CN(C)CCC=C1c2ccccc2CCc2ccc(C(=O)NCCNC(=O)CCOCCOCCOCCOCCNC(=O)CCc3ccc4n3[B-](F)(F)[N+]3=C(c5ccc[nH]5)C=CC3=C4)cc21 [Amitriptyline-a-2-NB590], the “NanoBRET Fold Response” value ([1]; tracer at 0.1μM) is reported as 0.95, the “NanoBRET Fold Response” value ([1]; tracer at 1μM) is reported as 1.05 and the “NanoBRET Fold Response” value ([2]; tracer at 0.1μM) is reported as 0.97. For the same compound, the “NanoBRET Fold Response” value ([2]; tracer at 1μM) was 1.01, the “NanoBRET Fold Response” value ([3]; tracer at 0.1μM) was 1.00 and the “NanoBRET Fold Response” value ([3]; tracer at 1μM) was 1.05. The “NanoBRET Fold Response” value ([4]; tracer at 0.1μM) was 1.09, the “NanoBRET Fold Response” value ([4]; tracer at 1μM) was 1.07 and the “NanoBRET Fold Response” value ([5]; tracer at 0.1μM) was 1.17. For the same compound, the “NanoBRET Fold Response” value ([5]; tracer at 1μM) was 1.06, the “NanoBRET Fold Response” value ([6]; tracer at 0.1μM) was 1.00 and the “NanoBRET Fold Response” value ([6]; tracer at 1μM) was 1.03. The “NanoBRET Fold Response” value ([7]; tracer at 0.1μM) was 1.05 and the “NanoBRET Fold Response” value ([7]; tracer at 1μM) was 1.03.
With COc1ccccc1N1CCN(CCCCN2C(=O)c3ccc(CNC(=O)CCOCCOCCOCCOCCNC(=O)CCc4ccc5n4[B-](F)(F)[N+]4=C(c6ccc[nH]6)C=CC4=C5)cc3C2=O)CC1 [NAN-190-2-NB590] the “NanoBRET Fold Response” value ([1]; AVPR2, tracer 0.1μM) was 1.00, the “NanoBRET Fold Response” value ([1]; AVPR2, tracer 1μM) was 0.98 and the “NanoBRET Fold Response” value ([2]; P2RY1, tracer 0.1μM) was 0.97. The “NanoBRET Fold Response” value ([4]; P2RY10, tracer 1μM) was 0.95, the “NanoBRET Fold Response” value ([5]; PDGFRB, tracer 0.1μM) was 0.99 and the “NanoBRET Fold Response” value ([5]; PDGFRB, tracer 1μM) was 1.00. For the same compound, the “NanoBRET Fold Response” value ([6]; F2RL3, tracer 0.1μM) was 0.99, the “NanoBRET Fold Response” value ([6]; F2RL3, tracer 1μM) was 1.01 and the “NanoBRET Fold Response” value ([7]; RXFP4, tracer 1μM) was 0.97. The “NanoBRET Fold Response” value ([8]; tracer 0.1μM) was 0.96 and the “NanoBRET Fold Response” value ([8]; tracer 1μM) was 1.04.
CN(CCC=C1c2ccccc2CCc2ccccc21)C(=O)CCOCCOCCOCCOCCNC(=O)CCc1ccc2n1[B-](F)(F)[N+]1=C(c3ccc[nH]3)C=CC1=C2 [Amitriptyline-e-2-NB590] was tested, and the “NanoBRET Fold Response” value ([1]; tracer at 1μM) was 0.99, the “NanoBRET Fold Response” value ([2]; tracer at 1μM) was 0.96 and the “NanoBRET Fold Response” value ([3]; tracer at 1μM) was 0.98. The “NanoBRET Fold Response” value ([4]; tracer at 1μM) was 0.99 and the “NanoBRET Fold Response” value ([5]; tracer at 1μM) was 1.04.
